Laboratory results taken from patent US8058507B2, “HOPM1 mediated disease resistance to Pseudomonas syringae in Arabidopsis” (priority 2007, dated 2011).

What was measured:
Assay in all cases: BFA treatment of bacteria-infiltrated detached leaves: bacterial multiplication and disease symptoms
Type in all cases: in vivo, Pseudomonas syringae
Pst DC3000 ΔCEL mutant = system: Pst DC3000 ΔCEL mutant
Description: (§1) A standard enumeration procedure involves pathogen inoculation, using any one of described methods, supra, followed by assaying bacterial populations present within host tissues at regular intervals. The population present within the tissue was calculated based on the dilution factor divided by the amount of tissue present in each sample. Plotting log (culturable bacterial number/cm^2 leaf tissue) against time (usually in days) after pathogen inoculation produced an unfitted curve, i.e. growth curve. For a review of methods, see, Katagiri et al., in The Arabidopsis Book, Somerville, Meyerowitz, Eds. (American Society of Plant Biologists, Rockville, Md., 2002), website://dx.doi.org/10.1199/tab.0039; herein incorporated by reference.
(§2) Leaves were harvested and surface sterilized as follows: 1) whole leaves were removed from a host plant and gently mixed in a 70% ethanol solution for 1 minute. Leaves were blotted briefly on paper towels then rinsed in sterile distilled water for 1 minute, then blotted dry on paper towels. Leaf disks were excised from leaves with a 0.5 cm^2 or smaller cork borer, depending on the size of the sample leaves; 2) leaf disks from the leaves of 2 or more independent replicate plants were pooled for a single tissue sample and placed in a 1.5-mL microfuge tube with 100 μL sterile distilled water, the amount of leaf tissue per tube was recorded as leaf surface area. Three or more samples were harvested for each time point. Steps 1 and 2 were repeated for each sample; 3) Tissue samples were ground with a microfuge tube plastic pestle, by hand or by using a small hand-held electric drill. […] The number of serial dilutions necessary to get countable colonies were determined for each sample, however dilutions to 10^−7 were usually sufficient for any bacterial strain; 7) The samples were plated on the appropriate medium (e.g., Low salt Luria Bertani) supplemented with the necessary antibiotics to select for the specific inoculated bacterial strain. Plating was done in the traditional way (100 μL of a single sample was spread on a single plate) or several 10 μL aliquots of the 1:10 serial dilutions were spotted on to a single plate and allowed to dry onto the surface; and 8) Plates were placed at 30° C. for approximately 2 days with a cfu value determined for each dilution of each sample. […]
(§3) Leaves were infiltrated with 1×10^6 cfu/ml of bacteria, detached, and placed in microtiter wells with petioles immersed in the 36 μM BFA (Sigma Co.) solution. […] Bacterial populations and disease symptoms were determined on day 0 and day three.

Pst DC3000 = details: Col-0 gl1 plants treated with water or BFA (36 μM)
Description: as §1, §2, §3

hrcC mutant = details: Col-0 gl1 plants treated with water or BFA (36 μM)
Description: as §1, §2, §3

C[C@H]1CCC/C=C/[C@@H]2C[C@H](O)C[C@H]2[C@H](O)/C=C/C(=O)O1 [BFA, Brefeldin A]
virulence (both multiplication and disease symptoms) (Pst DC3000 ΔCEL mutant; 36 μM BFA, wild-type Col-0 gl1 plants, day three): significantly enhanced
restoration of the virulence of the ΔCEL mutant, compared with AtMIN7 KO plants (Pst DC3000 ΔCEL mutant; BFA-treated leaves): greater than that in the AtMIN7 KO plants
multiplication or disease symptoms (Pst DC3000): no significant differences
multiplication or disease symptoms (hrcC mutant): no significant differences
